Drawing on publication doi:10.1101/2024.03.18.584035v1 (biorxiv, 2024), this text covers EC50 for one molecule.

This test addresses T1, olTRPM2 (Oryzias latipes, UniProt H2MNZ1).
T1 sequence (H2MNZ1 1-1431): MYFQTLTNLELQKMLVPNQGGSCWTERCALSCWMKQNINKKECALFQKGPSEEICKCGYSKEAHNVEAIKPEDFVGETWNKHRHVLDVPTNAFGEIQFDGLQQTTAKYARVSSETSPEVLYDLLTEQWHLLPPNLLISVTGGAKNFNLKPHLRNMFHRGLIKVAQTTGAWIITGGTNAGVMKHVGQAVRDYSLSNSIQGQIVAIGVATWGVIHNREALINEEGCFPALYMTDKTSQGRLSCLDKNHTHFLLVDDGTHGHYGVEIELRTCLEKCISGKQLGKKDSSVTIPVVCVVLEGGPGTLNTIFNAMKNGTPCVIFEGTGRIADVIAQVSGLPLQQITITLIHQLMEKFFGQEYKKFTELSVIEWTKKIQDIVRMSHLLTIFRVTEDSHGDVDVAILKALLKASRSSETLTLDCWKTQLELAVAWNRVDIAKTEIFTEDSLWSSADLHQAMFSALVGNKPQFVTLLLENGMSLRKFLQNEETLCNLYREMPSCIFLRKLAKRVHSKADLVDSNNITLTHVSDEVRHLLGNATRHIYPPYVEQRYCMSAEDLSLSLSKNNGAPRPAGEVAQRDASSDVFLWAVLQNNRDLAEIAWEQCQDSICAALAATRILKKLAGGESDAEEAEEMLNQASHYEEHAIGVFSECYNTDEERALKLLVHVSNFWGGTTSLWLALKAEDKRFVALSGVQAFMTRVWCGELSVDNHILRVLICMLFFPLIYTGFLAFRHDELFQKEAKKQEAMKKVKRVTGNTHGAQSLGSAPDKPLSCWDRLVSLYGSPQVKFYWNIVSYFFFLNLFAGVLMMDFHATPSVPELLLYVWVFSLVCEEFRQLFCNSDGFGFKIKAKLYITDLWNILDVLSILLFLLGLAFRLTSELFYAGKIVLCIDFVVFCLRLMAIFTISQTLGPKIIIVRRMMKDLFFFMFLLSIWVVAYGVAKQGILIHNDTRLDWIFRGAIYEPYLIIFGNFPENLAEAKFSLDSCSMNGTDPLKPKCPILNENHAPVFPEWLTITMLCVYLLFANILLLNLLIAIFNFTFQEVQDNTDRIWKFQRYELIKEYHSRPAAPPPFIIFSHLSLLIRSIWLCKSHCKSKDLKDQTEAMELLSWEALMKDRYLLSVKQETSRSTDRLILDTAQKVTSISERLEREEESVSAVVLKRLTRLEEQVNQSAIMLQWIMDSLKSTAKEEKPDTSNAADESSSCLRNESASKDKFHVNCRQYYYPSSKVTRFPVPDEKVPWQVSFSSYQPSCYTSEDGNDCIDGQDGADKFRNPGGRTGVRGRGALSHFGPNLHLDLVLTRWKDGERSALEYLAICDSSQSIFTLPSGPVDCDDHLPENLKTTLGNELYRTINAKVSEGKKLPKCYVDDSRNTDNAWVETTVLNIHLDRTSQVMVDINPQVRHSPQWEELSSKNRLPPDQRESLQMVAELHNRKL
Briefly: whole-cell patch clamp, HEK293T. The class given is cell-based. As to conditions: intracellular ADPR; room temperature; pH 7.4; -80 mV; agonist.

Consider `Nc1ncnc2c1ncn2[C@@H]1O[C@H](COP(=O)(O)OP(=O)(O)OC[C@H]2OC(O)[C@H](O)[C@@H]2O)[C@@H](O)[C@H]1O` (stereo partly shown) [ADPR, adenosine diphosphate ribose], for which a half-maximal effect (EC50) was put at 1100 ± 800 nM.
